Results reported in PMC13083723 (Patterns, 2026).

The compounds below were run on Vero-E6 cells (assay: cells). Details: not given.
Type: cell-based

Row | Structure (SMILES) | PL_Result | result_ITMP
1 | CCOc1ccccc1O[C@@H](c1ccccc1)[C@@H]1CNCCO1.CCOc1ccccc1O[C@H](c1ccccc1)[C@H]1CNCCO1 [SPE_A43974499] | 14.61 | –
2 | CCNC(=O)C[C@@H]1N=C(c2ccc(Cl)cc2)c2cc(OC)ccc2-n2c(C)nnc21 [I-BET-762, reference compound] | – | 13.27 percent effect

Same assay, conditions: Chlorocebus sabaeus, Vero C1008, 24 h, read-out: PL_Result

Row | Structure (SMILES) | activation at 10 µM
3 | COc1cc(NS(=O)(=O)c2ccc(N)cc2)ncn1 [SPE_K14116214] | -1.27%
4 | O[C@H]1[C@H](O)[C@@H](O)CN2CC[C@H](O)[C@H]12 [SPE_K20897876] | 7.21%
5 | CCN(CCCOc1ccc2c(Nc3cc(CC(=O)Nc4cccc(F)c4)[nH]n3)ncnc2c1)CCOP(=O)(O)O [SPE_K31928526] | -11.2%
6 | Nc1ncnc2c1ncn2C1O[C@H](COP(=O)(O)O)[C@@H](O)[C@H]1O (some centres unmarked) [SPE_A10111329] | -12.1%
7 | CN(C(=O)c1ccc(F)cc1C(F)(F)F)C1CCN(c2nnc(-c3ccnn3C)c3ccccc23)CC1 [SPE_K50498985] | -8%
8 | CC(C)[C@]12O[C@H]1[C@@H]1O[C@]13[C@]1(O[C@H]1C[C@H]1C4=C(CC[C@@]13C)C(=O)OC4)[C@@H]2O [SPE_K81258678] | -5.53%
9 | Nc1ncn([C@@H]2O[C@H](CO)[C@@H](O)[C@H]2O)c(=O)n1 [SPE_K55026842] | -12.3%
10 | CN(C)CCOC(c1ccc(Cl)cc1)c1ccccn1 (centres unmarked) [SPE_A29426959] | -7.35%
11 | CC[C@@H](CO)NC(=O)[C@@H]1C=C2c3cccc4[nH]cc(c34)C[C@H]2N(C)C1 [SPE_K34685430] | -5.04%
12 | CN1CCN(c2nc3ccccc3nc2Cl)CC1 [SPE_K11046126] | -4.46%
13 | CCCc1nc(C)c2c(=O)[nH]c(-c3cc(S(=O)(=O)N4CCN(CC)CC4)ccc3OCC)nn12 [SPE_K13926615] | 1%
14 | NC(Cc1c[nH]c2ccc(O)cc12)C(=O)O (centres unmarked) [SPE_A73930134] | -6.97%
15 | CC(=O)Oc1cc2c(s1)CCN(C(C(=O)C1CC1)c1ccccc1F)C2 (centres unmarked) [SPE_A83029242] | -4.76%
16 | N#Cc1cnc2cnc(NCc3cccnc3)cc2c1Nc1ccc(F)c(Cl)c1 [SPE_K51776215] | 4.19%
17 | CCc1c(C(=O)C(N)=O)c2c(OCC(=O)O)cccc2n1Cc1ccccc1 [SPE_K09711437] | -15.1%
18 | CCCCc1nc(Cl)c(C(=O)O)n1Cc1ccc(-c2ccccc2-c2nnn[nH]2)cc1 [SPE_K23533833] | 4.67%
19 | O=C(NCCCN1CCOCC1)c1ccc(Cl)cc1 [SPE_K17979676] | -11.4%
20 | N#Cc1ccc(Cn2cncc2CN2CCN(c3cccc(Cl)c3)C(=O)C2)cc1 [SPE_K10958118] | -5.79%
21 | Fc1ccc(Cl)cc1-c1nc(Nc2ccncc2)c2nccnc2n1 [SPE_K24566386] | -5.24%
22 | COc1c(O)cc2c(c1O)[C@@H]1O[C@H](CO)[C@@H](O)[C@H](O)[C@H]1OC2=O [SPE_K04176066] | 1.1%
23 | C=CCN1C[C@H](C)N([C@H](c2ccc(C(=O)N(CC)CC)cc2)c2cccc(OC)c2)C[C@H]1C [SPE_K29546239] | 1.37%
24 | CC(=O)NCCNc1cc(Cl)nn2c(-c3cccc(S(=O)(=O)N(C)C)c3)c(C)nc12 [SPE_K26726854] | 0.695%
25 | CC(C)Nc1nc2cc(Cl)c(Cl)cc2n1[C@H]1O[C@@H](CO)[C@H](O)[C@@H]1O [SPE_K59524082] | -6.13%
26 | CC(=O)c1ccc2c(c1)N(CCCN1CCN(CCO)CC1)c1ccccc1S2 [SPE_K42938903] | 52.6%
27 | CC(=O)O[C@H]1CC[C@@]2(C)C(=CC[C@@H]3[C@@H]2CC[C@]2(C)C(c4cccnc4)=CC[C@@H]32)C1 [SPE_K24048528] | -6.34%

Row | Structure (SMILES) | activation at 10 µM
28 | O=C(O)c1ccccc1-c1ccc(C(F)(F)F)cc1 [SPE_K99506538] | 0.609%
29 | O=C(O)C(=O)c1cn(Cc2ccccc2)c2ccc(-c3ccc(OC(F)(F)F)cc3)cc12 [SPE_K30882994] | 1.29%
30 | O=C(O)CC(S)C(=O)O (centres unmarked) [SPE_A43435802] | 5.6%
31 | CS(=O)(=O)Nc1ccc([N+](=O)[O-])cc1Oc1ccccc1 [SPE_K76775527] | -12.8%
32 | COc1ccc(C(=O)/C(Cc2cc(OC)c(OC)c(OC)c2)=C(\C(=O)O)c2ccc3c(c2)OCO3)cc1 [SPE_K13826399] | 12.9%
33 | CCCN(CCC)C(=O)Cc1c(-c2ccc(Cl)cc2)nc2ccc(Cl)cn12 [SPE_K66896751] | -0.969%
34 | Oc1cc(O)c2c(c1)O[C@H](c1ccc(O)c(O)c1)[C@@H](O)C2 [SPE_K58736316] | -12.2%
35 | CCCCC/C=C\C=C/CCCCCCCCC(=O)O [SPE_K26222048] | -6.49%
36 | CN(C)Cc1ccc(-c2nc3cccc4c3n2CCNC4=O)cc1 [SPE_K00615600] | 6.53%
37 | C[C@]12C=CC(=O)C=C1CC[C@@H]1[C@@H]2CC[C@]2(C)OC(=O)CC[C@@H]12 [SPE_K69636617] | -2.05%
38 | COc1ncc2cc(C(=O)Nc3cc(C(=O)NCc4cccc(Cl)c4)ccc3Cl)c(=O)[nH]c2n1 [SPE_K89517477] | -0.459%
39 | Nc1ncnc2c1c(-c1ccc(Cl)cc1)nn2-c1cccc(-c2cnnn2Cc2cccc(-c3ccccc3)c2)c1 [SPE_K88154110] | -7.24%
40 | Cc1cccc2c1CC[C@H](CN1CCC(c3c(Cl)cccc3Cl)CC1)C[C@@H]2O [SPE_K08333979] | -2.39%
41 | CC(C)=CCC[C@](C)(O[C@@H]1O[C@H](CO)[C@@H](O)[C@H](O)[C@H]1O)[C@H]1CC[C@]2(C)[C@@H]1[C@H](O)C[C@@H]1[C@@]3(C)CC[C@H](O)C(C)(C)[C@@H]3CC[C@]12C [SPE_K01942833] | -8.36%
42 | N#Cc1ccc(NCCNCC(=O)N2CCC[C@H]2C#N)nc1 [SPE_K77396579] | -14.3%
43 | CC(C)(Oc1ccc(Cl)cc1)C(=O)O [SPE_K19111024] | -0.104%
44 | CN1C(=O)N(c2cc(Cl)cc(Cl)c2)C(=O)[C@]12CN(Cc1cc(C(=O)O)cs1)C[C@H]2c1ccc(C#N)cc1 [SPE_K20093108] | -2.08%
45 | COc1cc2ncnc(Nc3cccc(Cl)c3F)c2cc1OC(=O)N1CCN(C)C[C@H]1C [SPE_K41626799] | -12.8%
46 | CCCCCCCCCCCCOS(=O)(=O)O [SPE_K05680146] | 12.1%
47 | CC(C)(C)OC(=O)N[C@H]1CCCCC/C=C\[C@@H]2C[C@@]2(C(=O)NS(=O)(=O)C2CC2)NC(=O)[C@@H]2C[C@@H](OC(=O)N3Cc4cccc(F)c4C3)CN2C1=O [SPE_K08111240] | -7.46%
48 | N#Cc1c(Oc2ccc(F)c(NC(=O)Cc3cccc(C(F)(F)F)c3)c2)ccc2nc(NC(=O)C3CC3)sc12 [SPE_K31866293] | 1.45%
49 | C[C@@H]1C[C@H]2[C@@H]3CCC4=CC(=O)C=C[C@]4(C)[C@@]3(F)[C@@H](O)C[C@]2(C)[C@@]1(O)C(=O)CO [SPE_A10188456] | -8.72%
50 | N[C@H](CSC(c1ccccc1)(c1ccccc1)c1ccccc1)C(=O)O [SPE_K09774593] | -6.1%
51 | O=C(O)C1CN(CCCP(=O)(O)O)CCN1 (centres unmarked) [SPE_A60832661] | -0.285%
52 | CN(C)c1ccc(C(=C2C=CC(=[N+](C)C)C=C2)c2ccc(N(C)C)cc2)cc1 [SPE_K60025295] | 5.79%

Row | Structure (SMILES) | activation at 10 µM
53 | CCN(CC)Cc1ccc(C(=O)N(CCc2ccccc2OC)[C@@H]2CCNC2)cc1 [SPE_K11821338] | -4.98%
54 | COc1ccc2cc3[n+](cc2c1OC)CCc1cc2c(cc1-3)OCO2 [SPE_K14796088] | -2.9%
55 | OC[C@H]1O[C@H](O)C[C@@H](O)[C@@H]1O [SPE_K97808269] | -3.49%
56 | CC[C@]12CCCN3CCc4c(n(c5ccccc45)C(=O)C1)[C@@H]32 [SPE_K40227168] | -8.29%
57 | COc1ccc([C@H]2CNC(=O)C2)cc1OC1CCCC1 [SPE_K65856711] | -5.06%
58 | CC(C)C[C@H](NC(=O)CNC(=O)c1cc(Cl)ccc1Cl)B1OC(=O)C(CC(=O)O)(CC(=O)O)O1 [SPE_K15203492] | -7.87%
59 | CCC(=O)NO [SPE_K11984358] | -5.92%
60 | Nc1ccc(S(=O)(=O)Nc2ccc(Cl)nn2)cc1 [SPE_K32021043] | 5.81%
61 | C[C@]12CC[C@H]3[C@@H](CCC4=CC(=O)CC[C@@H]43)[C@@H]1CC[C@@H]2O [SPE_K52080565] | -3.9%
62 | Cc1cccc(C)c1NC(=O)C(C)N (centres unmarked) [SPE_A92670106] | -8.17%
63 | Nc1ncnc2c1ncn2[C@@H]1O[C@H](CO)[C@@H](O)[C@H]1O [SPE_K01577834] | -3.02%
64 | O=[N+]([O-])c1cncn1CCN1CCOCC1 [SPE_K79145628] | -10.4%
65 | COc1cc(N2CCC(O)CC2)ccc1Nc1cc(Nc2ccccc2S(=O)(=O)C(C)C)c2cc[nH]c2n1 [SPE_K94853001] | -4.69%
66 | CC(C)(C)C(=O)NCCCC(=O)O [SPE_K62264492] | 5.19%
67 | COc1cccc(-c2cc(NCc3ccc4c(c3)OCO4)nc(N)n2)c1 [SPE_K42624714] | -1.5%
68 | COc1cc(-n2c(S)nc3ccccc3c2=O)c(Cl)cc1Cl [SPE_K61128465] | 22%
69 | CC(O)c1cc(C(=O)N[C@@H](C)Cn2ccc(-c3ccc(C#N)c(Cl)c3)n2)n[nH]1 (some centres unmarked) [SPE_A01259528] | -15.4%
70 | COc1cc(C=O)c([N+](=O)[O-])cc1OC [SPE_K03564313] | 2.17%
71 | C[C@H](NC(=O)CNC(=O)c1cccc(Cl)c1)c1ccccc1 [SPE_K19482962] | -10.5%
72 | CCC[C@H](N[C@@H](C)C(=O)N1[C@H](C(=O)O)C[C@@H]2CCCC[C@@H]21)C(=O)O [SPE_K00768353] | -9.94%
73 | Cc1cc(-c2nncc3c(C(C)(C)C)c(OCc4ncnn4C)nn23)no1 [SPE_K44022883] | -4.38%
74 | CC[C@]1(O)C[C@H]2C[N@](CCc3c([nH]c4ccccc34)[C@@](C(=O)OC)(c3cc4c(cc3OC)N(C)[C@H]3[C@@](O)(C(N)=O)[C@H](O)[C@]5(CC)C=CCN6CC[C@]43[C@@H]65)C2)C1 [SPE_K59753975] | 7.07%
75 | O=C(O)CCCCC(=O)O [SPE_K10656395] | 4.52%
76 | COc1ccc(-c2coc3cc(O)cc(O)c3c2=O)cc1 [SPE_K73303757] | -15.6%
77 | CCOC(=O)c1ncc2[nH]c3ccc(OCc4ccccc4)cc3c2c1COC [SPE_K33882852] | -9.36%
